Holding throughout (format): biochemical
The target of experiment [1] is T1, JAK1 (Homo sapiens, UniProt P23458).
T1 construct: made in house; host or cells: SF9 insect cells (baculovirus)
As to the kind of experiment: JAK1 inhibition (Table 4). To be noted: read-out: JAK1 Ki.

Experiment [2] has as its target T2, JAK3 (Homo sapiens, UniProt P52333).
T2 construct: made in house; host or cells: SF9 insect cells (baculovirus)
As to the kind of experiment: JAK3 inhibition (Table 4). To be noted: read-out: JAK3 Ki.

Experiment [3] concerns the target T3, TYK2 (Homo sapiens, UniProt P29597).
T3 construct: made in house; host or cells: SF9 insect cells (baculovirus)
T3 sequence (P29597 873-1187): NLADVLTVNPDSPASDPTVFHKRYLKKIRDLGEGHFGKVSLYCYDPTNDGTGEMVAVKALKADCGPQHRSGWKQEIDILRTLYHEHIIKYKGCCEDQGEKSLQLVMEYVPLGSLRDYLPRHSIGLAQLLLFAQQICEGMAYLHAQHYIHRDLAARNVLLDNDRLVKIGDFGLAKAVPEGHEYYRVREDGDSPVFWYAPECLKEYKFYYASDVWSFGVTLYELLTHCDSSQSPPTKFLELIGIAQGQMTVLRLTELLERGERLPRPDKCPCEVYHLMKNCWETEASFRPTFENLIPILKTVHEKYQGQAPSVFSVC
The experiment in a line: TYK2 inhibition (Table 4).

The target of experiment [4] is T4, JAK2 (Homo sapiens, UniProt O60674).
T4 construct: made in house; host or cells: SF9 insect cells (baculovirus)
The experiment in a line: JAK2 inhibition (Table 4). To be noted: read-out: JAK2 Ki.

T1 sequence (P23458 852-1154): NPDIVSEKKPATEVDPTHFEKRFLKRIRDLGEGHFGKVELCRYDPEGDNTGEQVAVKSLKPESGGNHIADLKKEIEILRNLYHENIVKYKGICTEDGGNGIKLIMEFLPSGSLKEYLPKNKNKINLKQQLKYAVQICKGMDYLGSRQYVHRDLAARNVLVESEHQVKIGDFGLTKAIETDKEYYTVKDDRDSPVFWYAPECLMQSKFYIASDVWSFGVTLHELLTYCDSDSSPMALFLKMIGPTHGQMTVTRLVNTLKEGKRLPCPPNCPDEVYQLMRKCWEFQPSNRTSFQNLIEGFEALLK
T2 sequence (P52333 783-1124): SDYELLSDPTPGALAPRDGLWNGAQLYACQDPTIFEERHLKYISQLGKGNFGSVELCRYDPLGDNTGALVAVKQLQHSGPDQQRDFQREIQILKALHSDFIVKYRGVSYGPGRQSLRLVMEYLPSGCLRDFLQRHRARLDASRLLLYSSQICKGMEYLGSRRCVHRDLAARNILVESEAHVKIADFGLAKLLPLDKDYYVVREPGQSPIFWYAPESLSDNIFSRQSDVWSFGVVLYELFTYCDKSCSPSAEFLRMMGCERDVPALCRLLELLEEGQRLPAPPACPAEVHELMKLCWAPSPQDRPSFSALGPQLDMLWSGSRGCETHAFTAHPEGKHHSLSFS
T4 sequence (O60674 812-1132): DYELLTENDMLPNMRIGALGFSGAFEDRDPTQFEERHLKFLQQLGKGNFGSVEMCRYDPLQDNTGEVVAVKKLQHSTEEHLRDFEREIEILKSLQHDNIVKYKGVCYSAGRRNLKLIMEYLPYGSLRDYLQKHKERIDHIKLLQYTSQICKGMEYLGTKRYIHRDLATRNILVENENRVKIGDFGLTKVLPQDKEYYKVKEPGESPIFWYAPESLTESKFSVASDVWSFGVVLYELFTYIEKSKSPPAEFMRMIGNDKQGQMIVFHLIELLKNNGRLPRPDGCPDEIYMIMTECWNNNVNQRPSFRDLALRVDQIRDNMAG

Turning to `CC(C)OCCOCc1nc2cnc3[nH]ccc3c2n1C1CCN(CCC#N)CC1` [Example 843, 3-{4-[2-(2-Isopropoxy-ethoxymethyl)-6H-1,3,5,6-tetraaza-as-indacen-1-yl]-piperidin-1-yl}-propionitrile], the Ki (commonly a dissociation constant, usually derived from enzyme kinetics or from competition with a known ligand) in experiment [1] was found to be 84.2 nM; in experiment [2] it was 169 nM; in experiment [3], 631 nM; in experiment [4] it was 80.8 nM.

Consider `OC(c1nc2cnc3[nH]ccc3c2n1C1CCCCC1)C1CC1` (racemic) [Example 940, (1-Cyclohexyl-1,6-dihydro-1,3,5,6-tetraaza-as-indacen-2-yl)-cyclopropyl-methanol], for which the Ki stood at 0.96 nM in experiment [1], 25.5 nM in experiment [2], 8.91 nM in experiment [3] and 31.3 nM in experiment [4].

On to `CC(C)OC(=O)N[C@H]1CC[C@H](n2cnc3cnc4[nH]ccc4c32)CC1` [Example 310, [(R)-4-(6H-1,3,5,6-Tetraaza-as-indacen-1-yl)-cyclohexyl]-carbamic acid isopropyl ester], for which the Ki came out at 9.01 nM in experiment [1], 213 nM in experiment [2], 197 nM in experiment [3] and 26.3 nM in experiment [4].

In the case of `O=C(Cc1nc2cnc3[nH]ccc3c2n1C1CCN(Cc2ccccc2)CC1)N1CCOCC1` [Example 23, 2-[1-(1-Benzyl-piperidin-4-yl)-1,6-dihydro-1,2,3,5,6-tetraaza-as-indacen-2-yl]-1-morpholin-4-yl-ethanone], the Ki turned out to be 6.22 nM in experiment [1], 9.98 nM in experiment [2], 616 nM in experiment [3] and 62.7 nM in experiment [4].

With `Cc1nc2cnc3[nH]ccc3c2n1C1CCC(N2CCC(C#N)CC2)CC1` (stereo not shown) [Example 768, 1-[4-(2-Methyl-6H-1,3,5,6-tetraaza-as-indacen-1-yl)-cyclohexyl]-piperidine-4-carbonitrile], the Ki came out at 1.77 nM in experiment [1], 85.9 nM in experiment [2], 23.4 nM in experiment [3] and 6.47 nM in experiment [4].

As to `c1coc(CN2CCC[C@@H](n3cnc4cnc5[nH]ccc5c43)C2)n1` [Example 43, 1-((R)-1-Oxazol-2-ylmethyl-piperidin-3-yl)-1,6-dihydro-1,3,5,6-tetraaza-as-indacene], the Ki was 43.1 nM in experiment [1], 177 nM in experiment [2], 204 nM in experiment [3] and 72.9 nM in experiment [4].

Turning to `Cc1nc2cnc3[nH]ccc3c2n1C1CCc2[nH]ncc2C1` (racemic) [Example 486, 2-Methyl-1-(4,5,6,7-tetrahydro-1H-indazol-5-yl)-1,6-dihydro-1,3,5,6-tetraaza-as-indacene], the Ki was determined as 3.45 nM in experiment [1], 10.1 nM in experiment [2], 21.9 nM in experiment [3] and 6.24 nM in experiment [4].

For the compound `COCCN1CCC(n2c(C(C)O)nc3cnc4[nH]ccc4c32)CC1` (racemic) [Example 539, 1-{1-[1-(2-Methoxy-ethyl)-piperidin-4-yl]-1,6-dihydro-1,3,5,6-tetraaza-as-indacen-2-yl}-ethanol], the Ki in experiment [1] came out at 12.7 nM; in experiment [2], 97.4 nM; in experiment [3], 352 nM; in experiment [4], 194 nM.

As to `O=C([C@@H]1CC(F)(F)CN1)N1CCC(n2cnc3cnc4[nH]ccc4c32)CC1` [Example 250, ((S)-4,4-Difluoro-pyrrolidin-2-yl)-[4-(6H-1,3,5,6-tetraaza-as-indacen-1-yl)-piperidin-1-yl]-methanone], the Ki in experiment [1] was 29 nM; in experiment [2] it was 336 nM; in experiment [3], 300 nM; in experiment [4] it was 64.7 nM.

For `CC(C)(C)OC(=O)N1CCC[C@H](CN[C@H]2CC[C@H](n3cnc4cnc5[nH]ccc5c43)CC2)C1` [Example 565, trans (R)-3-{[4-(6H-1,3,5,6-Tetraaza-as-indacen-1-yl)-cyclohexylamino]-methyl}-piperidine-1-carboxylic acid tert-butyl ester], the Ki amounted to 90.8 nM in experiment [1], 1050 nM in experiment [2], 1950 nM in experiment [3] and 397 nM in experiment [4].

`O=C([C@H]1CC[C@H](n2cnc3cnc4[nH]ccc4c32)CC1)N1CCOCC1` [Example 166, Trans Morpholin-4-yl-[4-(6H-1,2,3,5,6-tetraaza-as-indacen-1-yl)-cyclohexyl]-methanone]: the Ki in experiment [1] worked out at 145 nM; in experiment [2], 255 nM; in experiment [3], 1020 nM; in experiment [4] it was 151 nM.

Take `N#Cc1cc(CN2CCC(n3cnc4cnc5[nH]ccc5c43)CC2)ccn1` [Example 313, 4-[4-(6H-1,3,5,6-Tetraaza-as-indacen-1-yl)-piperidin-1-ylmethyl]-pyridine-2-carbonitrile]: the Ki is 1.38 nM in experiment [1], 59.6 nM in experiment [2], 78.6 nM in experiment [3] and 3.67 nM in experiment [4].

`C[C@@H](O)c1nc2cnc3[nH]ccc3c2n1[C@H]1CC[C@H](C#N)CC1` [Example 641, trans 4-[2-((R)-1-Hydroxy-ethyl)-6H-1,2,3,5,6-tetraaza-as-indacen-1-yl]-cyclohexanecarbonitrile]: the Ki in experiment [1] was 1.87 nM; in experiment [2] it was 254 nM; in experiment [3], 12.4 nM; in experiment [4] it was 66.5 nM.

`OCc1nc2cnc3[nH]ccc3c2n1C1CCN(CC(F)F)CC1` [Example 897, {1-[1-(2,2-Difluoro-ethyl)-piperidin-4-yl]-1,6-dihydro-1,3,5,6-tetraaza-as-indacen-2-yl}-methanol]: the Ki in experiment [1] turned out to be 1.9 nM; in experiment [2], 13.2 nM; in experiment [3], 4.42 nM; in experiment [4], 9.44 nM.

For `c1cc2c(ncc3nc(C4CCC4)n(C4CCNCC4)c32)[nH]1` [Example 326, 2-Cyclobutyl-1-piperidin-4-yl-1,6-dihydro-1,3,5,6-tetraaza-as-indacene], the Ki in experiment [1] is 27.6 nM; in experiment [2] it was 552 nM; in experiment [3], 2630 nM; in experiment [4], 938 nM.

`CC(O)CN1CCC(n2c(C(C)O)nc3cnc4[nH]ccc4c32)CC1` (stereo not shown) [Example 934, 1-{4-[2-(1-Hydroxy-ethyl)-6H-1,3,5,6-tetraaza-as-indacen-1-yl]-piperidin-1-yl}-propan-2-ol]: the Ki in experiment [1] was found to be 12.9 nM; in experiment [2] it was 549 nM; in experiment [3] it was 465 nM; in experiment [4] it was 669 nM.

Regarding `CC(O)c1nc2cnc3[nH]ccc3c2n1C1CCNCC1` (racemic) [Example 291], the inhibition constant Ki in experiment [1] came to 10.2 nM; in experiment [2], 731 nM; in experiment [3] it was 339 nM; in experiment [4], 854 nM.

With `CC(F)(F)CCc1nc2cnc3[nH]ccc3c2n1C1CCN(CCC#N)CC1` [Example 817, 3-{4-[2-(3,3-Difluoro-butyl)-6H-1,3,5,6-tetraaza-as-indacen-1-yl]-piperidin-1-yl}-propionitrile], the Ki turned out to be 8.58 nM in experiment [1], 63.7 nM in experiment [2], 207 nM in experiment [3] and 43 nM in experiment [4].

Turning to `O=C(NC1CCC(n2nnc3cnc4[nH]ccc4c32)C1)OCC(F)(F)F` (racemic) [Example 620, Racemic trans [3-(6H-1,2,3,5,6-Pentaaza-as-indacen-1-yl)-cyclopentyl]-carbamic acid 2,2,2-trifluoro-ethyl ester], the Ki in experiment [1] is 1.64 nM; in experiment [2], 20.5 nM; in experiment [3] it was 91.4 nM; in experiment [4] it was 8.15 nM.

As to `CC(O)c1nc2cnc3[nH]ccc3c2n1C1CCN(Cc2ccnc(C#N)c2)CC1` (racemic) [Example 350, 4-{4-[2-(1-Hydroxy-ethyl)-6H-1,3,5,6-tetraaza-as-indacen-1-yl]-piperidin-1-ylmethyl}-pyridine-2-carbonitrile], the Ki in experiment [1] stood at 6.44 nM; in experiment [2] it was 178 nM; in experiment [3], 269 nM; in experiment [4], 50.4 nM.

As for `c1cncc(Cc2nc3cnc4[nH]ccc4c3n2C2CCOCC2)c1` [Example 469, 2-Pyridin-3-ylmethyl-1-(tetrahydro-pyran-4-yl)-1,6-dihydro-1,3,5,6-tetraaza-as-indacene], the Ki in experiment [1] was found to be 215 nM; in experiment [2], 475 nM; in experiment [3] it was 1770 nM; in experiment [4], 1450 nM.

`C[C@@H](O)c1nc2cnc3[nH]ccc3c2n1C1CCN(Cc2cnco2)CC1` [Example 898, (R)-1-[1-(1-Oxazol-5-ylmethyl-piperidin-4-yl)-1,6-dihydro-1,3,5,6-tetraaza-as-indacen-2-yl]-ethanol]: the Ki in experiment [1] amounted to 2.09 nM; in experiment [2], 12.9 nM; in experiment [3], 96.7 nM; in experiment [4], 54.4 nM.

Consider `CC1(O)CCC(n2cnc3cnc4[nH]ccc4c32)CC1` (stereo not drawn) [Example 993, Cis-1-Methyl-4-(6H-1,3,5,6-tetraaza-as-indacen-1-yl)-cyclohexanol], for which the Ki is 1.67 nM in experiment [1], 24.1 nM in experiment [2], 7.15 nM in experiment [3] and 4 nM in experiment [4].

With `Cn1nccc1C(=O)NCc1nc2cnc3[nH]ccc3c2n1C1CCN(CCC#N)CC1` [Example 209, 2-Methyl-2H-pyrazole-3-carboxylic acid {1-[1-(2-cyano-ethyl)-piperidin-4-yl]-1,6-dihydro-1,2,3,5,6-tetraaza-as-indacen-2-ylmethyl}-amide], the Ki in experiment [1] turned out to be 2.17 nM; in experiment [2] it was 30.6 nM; in experiment [3] it was 66.6 nM; in experiment [4], 17.6 nM.

Take `CCN1CCC(n2c([C@@H](C)O)nc3cnc4[nH]ccc4c32)C(F)(F)C1` (single isomer, unassigned) [Example 879]: the Ki worked out at 3.88 nM in experiment [1], 27.9 nM in experiment [2], 26.5 nM in experiment [3] and 22.2 nM in experiment [4].

Source of the values: patent publication US8461328B2, “Tricyclic heterocyclic compounds, compositions and methods of use thereof” (Genentech, Inc., priority 2010, dated 2013).
